Inconclusive results and toxic doses are left out. Cut-off read from the data, not from the text of the source: active = T/C of 150% or more; inactive = T/C below 125%.
Tested on: L1210 leukemia ip in BDF1 mice, survival T/C
Assay: NCI In Vivo Anticancer Drug Screen. Data for tumor model L1210 Leukemia (intraperitoneal) in B6D2F1 (BDF1) mice
Conditions: endpoint: mean survival time, higher = longer survival
Outline: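 Each compound was tested against a transplantable tumor grown in mice. The endpoint was survival, with treated animals benchmarked against vehicle controls as a simple ratio.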

[1] = dose: 75.0 mg/kg/injection, schedule: Q01DX001 (ip), vehicle: saline
[2] = dose: 150.0 mg/kg/injection, schedule: Q01DX001 (ip), vehicle: saline
[3] = dose: 300.0 mg/kg/injection, schedule: Q01DX001 (ip), vehicle: saline
[4] = dose: 100.0 mg/kg/injection, schedule: Q01DX001 (ip), vehicle: saline
[5] = dose: 200.0 mg/kg/injection, schedule: Q01DX001 (ip), vehicle: saline
[6] = dose: 100.0 mg/kg/injection, schedule: Q04DX003 (ip), vehicle: saline
[7] = dose: 200.0 mg/kg/injection, schedule: Q04DX003 (ip), vehicle: saline
[8] = dose: 400.0 mg/kg/injection, schedule: Q04DX003 (ip), vehicle: saline
[9] = dose: 100.0 mg/kg/injection, schedule: Q01DX001 (ip), vehicle: carboxymethylcellulose (CMC)
[10] = dose: 100.0 mg/kg/injection, schedule: Q04DX003 (ip), vehicle: Klucel (hydroxypropylcellulose) (HPC)
[11] = dose: 200.0 mg/kg/injection, schedule: Q04DX003 (ip), vehicle: Klucel (hydroxypropylcellulose) (HPC)
[12] = dose: 400.0 mg/kg/injection, schedule: Q04DX003 (ip), vehicle: Klucel (hydroxypropylcellulose) (HPC)
[13] = dose: 100.0 mg/kg/injection, schedule: Q04DX002 (ip), vehicle: Klucel (hydroxypropylcellulose) (HPC)
[14] = dose: 200.0 mg/kg/injection, schedule: Q04DX002 (ip), vehicle: Klucel (hydroxypropylcellulose) (HPC)
[15] = dose: 400.0 mg/kg/injection, schedule: Q04DX002 (ip), vehicle: Klucel (hydroxypropylcellulose) (HPC)

Measured: T/C

CCC(=O)CC(=O)C(=O)OC
inactive: [1] 102 % of control | dose: 75.0 mg/kg/injection, schedule: Q04DX003 (ip), vehicle: saline 105 % of control | [2] 100 % of control | dose: 150.0 mg/kg/injection, schedule: Q04DX003 (ip), vehicle: saline 103 % of control | [3] 104 % of control | dose: 300.0 mg/kg/injection, schedule: Q04DX003 (ip), vehicle: saline 90 % of control

CCCCCCCCc1cc[n+](C2=C([O-])c3ccccc3C(=O)C2=O)cc1
inactive: dose: 1.5 mg/kg/injection, schedule: Q01DX009 (ip), vehicle: saline 106 % of control | dose: 3.0 mg/kg/injection, schedule: Q01DX009 (ip), vehicle: saline 95 % of control | dose: 6.0 mg/kg/injection, schedule: Q01DX009 (ip), vehicle: saline 106 % of control

C/C(=N\O)C(C)(C)O
inactive: dose: 100.0 mg/kg/injection, schedule: Q04DX002 (ip), vehicle: saline 101 % of control | dose: 200.0 mg/kg/injection, schedule: Q04DX002 (ip), vehicle: saline 108 % of control | dose: 400.0 mg/kg/injection, schedule: Q04DX002 (ip), vehicle: saline 105 % of control

COc1cc2c(cc1OC)C(Cc1ccc(O)cc1)N(C)CC2 (configuration not stated)
inactive: [4] 96 % of control | [5] 91 % of control

COc1ccc(C(CCl)(CCl)c2ccc(OC)cc2)cc1
inactive: dose: 100.0 mg/kg/injection, schedule: Q01DX009 (ip), vehicle: gum acacia 110 % of control | dose: 100.0 mg/kg/injection, schedule: Q04DX003 (ip), vehicle: gum acacia 92 % of control | dose: 200.0 mg/kg/injection, schedule: Q01DX009 (ip), vehicle: gum acacia 98 % of control | dose: 200.0 mg/kg/injection, schedule: Q04DX003 (ip), vehicle: gum acacia 101 % of control | dose: 400.0 mg/kg/injection, schedule: Q01DX009 (ip), vehicle: gum acacia 93 % of control | dose: 400.0 mg/kg/injection, schedule: Q04DX003 (ip), vehicle: gum acacia 103 % of control

CC1CC2CCCC(O)=C2C(=O)O1 (configuration not stated)
inactive: [4] 102 % of control | [5] 102 % of control | dose: 400.0 mg/kg/injection, schedule: Q01DX001 (ip), vehicle: saline 105 % of control

CSc1cc(C)[o+]c(C)c1
inactive: dose: 12.5 mg/kg/injection, schedule: Q01DX009 (ip), vehicle: Klucel (hydroxypropylcellulose) (HPC) 108 % of control | dose: 25.0 mg/kg/injection, schedule: Q01DX009 (ip), vehicle: Klucel (hydroxypropylcellulose) (HPC) 112 % of control | dose: 50.0 mg/kg/injection, schedule: Q01DX009 (ip), vehicle: Klucel (hydroxypropylcellulose) (HPC) 105 % of control | dose: 75.0 mg/kg/injection, schedule: Q01DX009 (ip), vehicle: acetone 110 % of control | [4] 97 % of control | dose: 100.0 mg/kg/injection, schedule: Q01DX009 (ip), vehicle: Klucel (hydroxypropylcellulose) (HPC) 120 % of control | dose: 115.0 mg/kg/injection, schedule: Q01DX009 (ip), vehicle: acetone 103 % of control | dose: 170.0 mg/kg/injection, schedule: Q01DX009 (ip), vehicle: acetone 95 % of control | [5] 103 % of control | dose: 200.0 mg/kg/injection, schedule: Q01DX009 (ip), vehicle: Klucel (hydroxypropylcellulose) (HPC) 106 % of control | dose: 255.0 mg/kg/injection, schedule: Q01DX009 (ip), vehicle: acetone 110 % of control

CCOC(=O)c1cc(OC(C)=O)c2c(ccc3cc(OC)ccc32)c1CC
inactive: dose: 100.0 mg/kg/injection, schedule: Q01DX009 (ip), vehicle: saline 91 % of control | [6] 93 % of control | [7] 96 % of control | dose: 400.0 mg/kg/injection, schedule: Q01DX009 (ip), vehicle: saline 91 % of control | [8] 91 % of control

CCOC(=O)c1ncc(Cl)cc1NC(=O)CC(=O)Nc1cc(Cl)cnc1C(=O)OCC
inactive: [6] 97 % of control | [7] 91 % of control | [8] 92 % of control

COc1cc2c(cc1OC)C(NC(C)C)CCCC2 (configuration not stated)
inactive: [4] 98 % of control | [5] 95 % of control

Cc1nccnc1S(=O)(=O)c1ccc2ccccc2c1
inactive: dose: 100.0 mg/kg/injection, schedule: Q01DX001 (ip), vehicle: Klucel (hydroxypropylcellulose) (HPC) 101 % of control | dose: 200.0 mg/kg/injection, schedule: Q01DX001 (ip), vehicle: Klucel (hydroxypropylcellulose) (HPC) 97 % of control

CCN(CC)CCSc1ncnc2nc[nH]c12
inactive: [1] 102 % of control | [2] 91 % of control | [3] 104 % of control

c1ccc2c[n+](CCCCCCCCCC[n+]3ccc4ccccc4c3)ccc2c1
inactive: dose: 1.0 mg/kg/injection, schedule: Q01DX009 (ip), vehicle: saline 106 % of control | dose: 2.0 mg/kg/injection, schedule: Q01DX009 (ip), vehicle: saline 97 % of control | dose: 4.0 mg/kg/injection, schedule: Q01DX009 (ip), vehicle: saline 92 % of control | dose: 8.0 mg/kg/injection, schedule: Q04DX003 (ip), vehicle: saline 97 % of control | dose: 16.0 mg/kg/injection, schedule: Q04DX003 (ip), vehicle: saline 92 % of control | dose: 32.0 mg/kg/injection, schedule: Q04DX003 (ip), vehicle: saline 89 % of control

CCOC(=O)C(Cc1ccc(O)cc1)Nc1nc2ccccc2o1 (configuration not stated)
inactive: [9] 96 % of control | dose: 200.0 mg/kg/injection, schedule: Q01DX001 (ip), vehicle: carboxymethylcellulose (CMC) 96 % of control | dose: 400.0 mg/kg/injection, schedule: Q01DX001 (ip), vehicle: carboxymethylcellulose (CMC) 96 % of control

O=C1C(Br)=C(Br)c2ccccc21
inactive: dose: 50.0 mg/kg/injection, schedule: Q01DX001 (ip), vehicle: carboxymethylcellulose (CMC) 100 % of control | [9] 99 % of control

Fc1c(F)c(C(F)(F)F)c(F)c(F)c1P(c1c(F)c(F)c(C(F)(F)F)c(F)c1F)c1c(F)c(F)c(C(F)(F)F)c(F)c1F
inactive: dose: 75.0 mg/kg/injection, schedule: Q01DX009 (ip), vehicle: Klucel (hydroxypropylcellulose) (HPC) 123 % of control | [10] 97 % of control | dose: 150.0 mg/kg/injection, schedule: Q01DX009 (ip), vehicle: Klucel (hydroxypropylcellulose) (HPC) 96 % of control | [11] 100 % of control | dose: 300.0 mg/kg/injection, schedule: Q01DX009 (ip), vehicle: Klucel (hydroxypropylcellulose) (HPC) 100 % of control | [12] 100 % of control

Cc1ccc(C)c(S(N)(=O)=O)c1
inactive: [13] 106 % of control | [14] 100 % of control | [15] 103 % of control

CC1(C(=O)O)CC12c1ccccc1-c1ccccc12 (configuration not stated)
inactive: dose: 100.0 mg/kg/injection, schedule: Q01DX001 (ip), vehicle: acetone 103 % of control | dose: 200.0 mg/kg/injection, schedule: Q01DX001 (ip), vehicle: acetone 92 % of control

O=[N+]([O-])c1ccc(SSc2ccc([N+](=O)[O-])cc2)cc1
inactive: dose: 100.0 mg/kg/injection, schedule: Q01DX009 (ip), vehicle: saline with Tween-80 95 % of control | [13] 115 % of control | dose: 200.0 mg/kg/injection, schedule: Q01DX009 (ip), vehicle: saline with Tween-80 87 % of control | [14] 100 % of control | dose: 400.0 mg/kg/injection, schedule: Q01DX009 (ip), vehicle: saline with Tween-80 94 % of control | [15] 86 % of control

O=C(CCCN1CCC(O)CC1)c1ccccc1
inactive: [6] 90 % of control | [7] 104 % of control

Cc1ccc(NC(=O)NCCBr)cc1C
inactive: [10] 96 % of control | [11] 93 % of control | [12] 95 % of control
